In the NIST ThermoML archive (doi:10.1016/j.jct.2012.04.015):
Numbers after ± are expanded uncertainties.

Experiments:
[1] = 101.33 kPa, Liquid, Vibrating tube method
[2] = refractive index (Na D-line) (dimensionless); details: 101.33 kPa, Liquid, Standard Abbe refractometry

Compound	mass density ([1]; 298.15 K)	refractive index ([2]; 298.15 K)	mass density ([1]; 303.15 K)	refractive index ([2]; 303.15 K)
CCCCCCC [heptane]	679.57 ± 0.18 kg/m3	1.38529 ± 0.00033		
CCCCCCn1cc[n+](C)c1.O=S(=O)([O-])C(F)(F)F [1-hexyl-3-methylimidazolium trifluoromethanesulfonate]			1232.55 ± 0.43 kg/m3	1.43926 ± 0.00037
Cc1ccccc1 [toluene]	862.23 ± 0.1 kg/m3	1.49398 ± 0.00031		
CCCCCC[n+]1ccn(C)c1.O=S(=O)([N-]S(=O)(=O)C(F)(F)F)C(F)(F)F	1371.99 ± 0.55 kg/m3	1.43016 ± 0.00037		
C1CCCCC1 [cyclohexane]	773.88 ± 0.13 kg/m3	1.42356 ± 0.00031		
CCCCn1cc[n+](C)c1.O=S(=O)([O-])C(F)(F)F [1-butyl-3-methylimidazolium trifluoromethanesulfonate]	1303.63 ± 0.49 kg/m3	1.43895 ± 0.00037		
